Laboratory results reported in ChEMBL document CHEMBL2363022, “Malaria Box Schistosomiasis Screening Data” (2013).

Key:
Assay type in all cases: functional
Set-up in all cases: scale not given here
Schistosoma mansoni [1] = test system: Schistosoma mansoni
Schistosoma mansoni [2] = test system: Schistosoma mansoni; remark: listed apart in the source
Schistosoma mansoni [3] = test system: Schistosoma mansoni; remark: listed apart in the source

Row | Compound | Toxicity (Schistosoma mansoni [1]) | Toxicity (Schistosoma mansoni [2]) | Toxicity (Schistosoma mansoni [3])
1 | Oc1ccc(Br)cc1CN1CCN(Cc2ccc(Cl)cc2)CC1 | 1 | 0 | 0
2 | Cc1cc(N(C)C)nc(Nc2ccc(NC(=O)Nc3ccccc3)cc2)n1 | 0 | 3 | 3
3 | COc1cc(C(=O)Nc2nc3c(cc4c5c(cccc53)CC4)s2)cc(OC)c1OC | 0 | 0 | 0
4 | O=C(CSc1ccc2nnc(-c3cccc(F)c3)n2n1)Nc1ccc2c(c1)OCO2 | 0 | 0 | 0
5 | Fc1ccc2[nH]c3c(NCCCN4CCOCC4)ncnc3c2c1 | 0 | 0 | 1
6 | O=C(NCc1ccco1)C1CCN(S(=O)(=O)c2ccc(Br)cc2)CC1 | 0 | 0 | 0
7 | Cc1cc(C)cc(Nc2cc(C)nc3nc(C(F)(F)F)nn23)c1 | 0 | 0 | 0
8 | CCCc1c(CC)c(=N)c2ccccc2n1C | 1 | 0 | 0
9 | O=C(Nc1cccc(C2=NCCN2)c1)Nc1cccc(C2=NCCN2)c1 [IMIDOCARB] | 0 | 0 | 0
10 | O=C1CC(O)(C(F)(F)C(F)(F)F)Oc2ccccc21 (centres undefined) | 0 | 0 | 1
11 | Brc1ccc(Nc2nc3ccccc3nc2Nc2ccc(Br)cc2)cc1 | 3 | 4 | 4
12 | COc1ccc(C=C2SC(=N)N(c3ccccc3OC)C2=O)cc1 | 0 | 0 | 0
13 | CC(C)c1ccc(CNCC(O)c2ccccc2)cc1.Cl (centres undefined) | 0 | 0 | 0
14 | OC(CNCC1CCCO1)Cn1c2ccc(Cl)cc2c2cc(Cl)ccc21 (centres undefined) | 0 | 0 | 0
15 | CC(C)(C)c1ccc(C2CC3=Nc4ccccc4N(C(=O)c4ccccc4Cl)C(c4ccc(F)cc4)C3=C(O)C2)cc1 (centres undefined) | 1 | 1 | 4
16 | CCN1CCN(c2cc(C)c3cc(NC(=O)c4ccc(OC)c(OC)c4)ccc3n2)CC1 | 1 | 0 | 0
17 | COc1ccc(C(=O)Nc2ccc3nc(N4CCCCC4)cc(C)c3c2)cc1OC | 0 | 0 | 0
18 | CCCCN(CCCC)S(=O)(=O)c1ccc(NC(=O)c2ccco2)cc1 | 0 | 0 | 0
19 | CCOC(=O)C1(Cc2ccccc2)CCN(Cc2cccc(OC)c2O)CC1 | 1 | 1 | 2
20 | Cc1cc(Nc2ccc(C)c(Cl)c2)n2nc(C(F)(F)F)nc2n1 | 0 | 0 | 0
21 | COc1cc(OC)c(N(C)C(=O)c2cc3c(s2)-c2ccccc2S(=O)(=O)C3)cc1Cl | 0 | 0 | 0
22 | COc1cccc(Nc2nc(NCCO)c3ccccc3n2)c1.Cl | 0 | 0 | 0
23 | COc1cccc(C2(C)Nc3ccccc3-c3nc4ccccc4n32)c1 (centres undefined) | 0 | 0 | 0

Row | Compound | Toxicity (Schistosoma mansoni [1]) | Toxicity (Schistosoma mansoni [2]) | Toxicity (Schistosoma mansoni [3])
24 | Cc1cc(=O)oc2c1ccc1oc(C(=O)c3ccccc3)c(C)c12 | 0 | 0 | 0
25 | O=C(NCCCN1CCC(N2CCCCC2)CC1)C1=Cc2cc(Br)ccc2OC1 | 0 | 1 | 4
26 | COc1cccc(Cn2c(Oc3ccccc3)nc3c2c(=O)n(C)c(=O)n3C)c1 | 0 | 0 | 0
27 | O=c1nc(C=Cc2ccc(Cl)cc2)oc2ccccc12 | 2 | 0 | 0
28 | Cc1ccc(C2CC(C(F)(F)F)n3nc(C(=O)N4CCN(C(c5ccccc5)c5ccccc5)CC4)cc3N2)cc1 (centres undefined) | 0 | 0 | 0
29 | CN1CCN(c2ncnc3c2[nH]c2ccc(Cl)cc23)CC1 | 0 | 0 | 0
30 | Cc1ccc(-c2cc3c(SCC(=O)Nc4cc(C(F)(F)F)ccc4Cl)nccn3n2)cc1 | 0 | 0 | 0
31 | CCOc1ccc(Nc2ccnc3cc(Cl)ccc23)cc1 | 2 | 0 | 0
32 | Cl.Cn1c(=O)n(C)c2cc(CNCCNc3ccnc4cc(Cl)ccc34)ccc21 | 0 | 1 | 1
33 | Cc1ccccc1OCCSc1nc2ccc(NC(=O)c3cccs3)cc2s1 | 0 | 0 | 0
34 | COc1ccc(CNC(=O)c2cc3c(=O)n4ccccc4nc3n(CCc3ccccc3)c2=N)cc1 | 1 | 4 | 4
35 | COc1ccc(CCn2c(=N)c(C(=O)NCc3cccnc3)cc3c(=O)n4cccc(C)c4nc32)cc1 | 2 | 0 | 4
36 | O=C(O)C(=O)O.Oc1ccccc1CN1CCN(C(c2ccccc2)c2ccccc2)CC1 | 0 | 0 | 0
37 | CCN1CCCC1CNc1[nH]cnc2c3cc(Cl)ccc3nc1-2 (centres undefined) | 0 | 0 | 0
38 | Cc1ccc(Cl)cc1N1CCN(CCCNC(=O)C2CCN(c3nc4ccccc4[nH]3)CC2)CC1 | 0 | 0 | 3
39 | C=C(C)CCC(C)N1CCC(N2CCC(C(=O)NCCc3ccccc3)CC2)CC1 (centres undefined) | 0 | 0 | 2
40 | CCOc1ccc2nc(C)cc(Nc3ccc(Br)cc3)c2c1 | 2 | 4 | 4
41 | CCOc1c(Cl)cc(CNC(C)C(O)c2ccccc2)cc1OC (centres undefined) | 0 | 0 | 0
42 | Oc1c2c(nc3cc(-c4ccccc4)nn13)CCCC2 | 0 | 0 | 0
43 | CCOC(=O)c1c(C)n(-c2ccc(Cl)cc2)c2ccc(OC(=O)C=Cc3ccccc3)cc12 | 0 | 0 | 0
44 | O=C(NC1CCN(Cc2ccccc2)CC1)c1cc(-c2ccncc2)nc2ccc(Cl)cc12 | 0 | 0 | 2
45 | O=C(Nc1ccc(C23CC4CC(CC(c5ccccc5)(C4)C2)C3)cc1)c1cccs1 | 2 | 2 | 2
46 | Cc1cc(NC(=O)C2c3ccccc3C(=O)N(CC(C)C)C2c2cccs2)no1 (centres undefined) | 0 | 0 | 0

Row | Compound | Toxicity (Schistosoma mansoni [1]) | Toxicity (Schistosoma mansoni [2]) | Toxicity (Schistosoma mansoni [3])
47 | CCOC(=O)C1=C(C)N=c2sc(=Cc3cc(Cl)ccc3O)c(=O)n2C1c1ccc(OC)cc1 (centres undefined) | 0 | 0 | 0
48 | CCCCNc1nc(NC(C)(C)C)nc(NC(C)(C)C)n1 | 0 | 4 | 4
49 | CCC(=O)Nc1nnc(Cc2ccc(OC)c(OC)c2)s1 | 0 | 0 | 0
50 | CCOC(=O)C1=C(c2ccccc2)N=c2sc(=Cc3cc(C)n(-c4ccc(F)cc4)c3C)c(=O)n2C1c1cccc(OC)c1OC (centres undefined) | 0 | 0 | 0
51 | Cc1ccc(-c2cc(C(=O)Nc3ccc(S(=O)(=O)N4CCCCC4)cc3)[nH]n2)c(O)c1 | 0 | 0 | 0
52 | OC1=C2C(=Nc3ccccc3SC2c2ccccc2)c2ccccc21 (centres undefined) | 0 | 0 | 0
53 | CCn1c(CN2CCN(Cc3ccccc3)CC2)nc2cc(NC(=O)c3cccs3)ccc21 | 0 | 0 | 0
54 | c1ccc(Cn2c(N=Nc3c(Nc4ccccc4)ccc4ccccc34)nc3ccccc32)cc1 | 0 | 0 | 0
55 | O=C(CCc1ccccc1)c1ccccc1OCC(O)CN1CCCCC1 (centres undefined) | 1 | 0 | 4
56 | COc1ccc(CCN2C(=O)c3[nH]nc(-c4cc(Cl)c(C)cc4O)c3C2c2ccccc2F)cc1 (centres undefined) | 0 | 0 | 0
57 | CCCCCCOC(=O)C1=C(C)NC(=O)NC1c1ccccc1F (centres undefined) | 0 | 0 | 0
58 | CCc1ccc(CNCC(O)c2ccccc2)cc1.Cl (centres undefined) | 1 | 0 | 1
59 | CCCCNCC(O)(c1ccc(Cl)cc1)c1ccc(Cl)cc1 | 0 | 0 | 0
60 | COc1ccc(Nc2cc(C)nc(NCc3ccccc3)n2)cc1 | 2 | 3 | 3
61 | O=C(O)C1Cc2c([nH]c3ccccc23)C(c2ccc(Cl)cc2Cl)N1 (centres undefined) | 0 | 0 | 0
62 | CCOc1ccc(Nc2c3ccccc3nc3ccccc23)cc1.Cl | 2 | 3 | 4
63 | O=C(Nc1ccc(Cl)c(Cl)c1)Nc1ccc(Cl)c(Cl)c1 | 3 | 3 | 4
64 | O=C1c2ccccc2C2=Nc3ccccc3SC(c3cccc(F)c3)C12 (centres undefined) | 1 | 1 | 1
65 | OC1=C2C(=Nc3ccccc3SC2c2ccc(Br)cc2)c2ccccc21 (centres undefined) | 1 | 0 | 0
66 | CCCn1c(=N)c(C(=O)NC2CCCCC2)cc2c(=O)n3cccc(C)c3nc21 | 0 | 0 | 0
67 | CCOC(=O)c1cnc2ccc(CC)cc2c1O | 0 | 0 | 0
68 | COc1ccc(/C=C2/SC(=Nc3ccccc3)NC2=O)cc1 | 0 | 0 | 0
